Tested on: rat
Test: concentration in plasma after dosing
Details: dosed: Ondansetron, male, Sprague-Dawley

In the case of Cc1nccn1CC1CCc2c(c3ccccc3n2C)C1=O (stereo not given) [Ondansetron], the concentration in plasma (1 min, 1.0000000000 mg/kg, iv) is reported as 16200 ng/mL, the concentration in plasma (1 min, 4.0000000000 mg/kg, iv) is reported as 37100 ng/mL and the concentration in plasma (1 min, 8.0000000000 mg/kg, iv) is reported as 104000 ng/mL. It also gave a concentration in plasma (1 min, 20.0000000000 mg/kg, iv) of 175000 ng/mL, a concentration in plasma (0.05 h, 1.0000000000 mg/kg, iv) of 781 ng/mL and a concentration in plasma (0.05 h, 4.0000000000 mg/kg, iv) of 3050 ng/mL. The concentration in plasma (0.05 h, 4.0000000000 mg/kg, oral) was 70 ng/mL, the concentration in plasma (0.05 h, 8.0000000000 mg/kg, iv) was 6280 ng/mL and the concentration in plasma (0.05 h, 8.0000000000 mg/kg, oral) was 100 ng/mL. It also gave a concentration in plasma (0.05 h, 20.0000000000 mg/kg, iv) of 17600 ng/mL, a concentration in plasma (0.05 h, 20.0000000000 mg/kg, oral) of 491 ng/mL and a concentration in plasma (5 min, 4.0000000000 mg/kg, oral) of 244 ng/mL. The concentration in plasma (5 min, 8.0000000000 mg/kg, oral) was 249 ng/mL, the concentration in plasma (5 min, 20.0000000000 mg/kg, oral) was 1110 ng/mL and the concentration in plasma (7 min, 1.0000000000 mg/kg, iv) was 420 ng/mL. The concentration in plasma (7 min, 4.0000000000 mg/kg, iv) was 1480 ng/mL, the concentration in plasma (7 min, 8.0000000000 mg/kg, iv) was 3240 ng/mL and the concentration in plasma (7 min, 20.0000000000 mg/kg, iv) was 10100 ng/mL. It also gave a concentration in plasma (10 min, 4.0000000000 mg/kg, oral) of 171 ng/mL, a concentration in plasma (10 min, 8.0000000000 mg/kg, oral) of 298 ng/mL and a concentration in plasma (10 min, 20.0000000000 mg/kg, oral) of 808 ng/mL. It also gave a concentration in plasma (0.25 h, 1.0000000000 mg/kg, iv) of 231 ng/mL, a concentration in plasma (0.25 h, 4.0000000000 mg/kg, iv) of 830 ng/mL and a concentration in plasma (0.25 h, 8.0000000000 mg/kg, iv) of 1860 ng/mL. For the same molecule, the concentration in plasma (0.25 h, 20.0000000000 mg/kg, iv) was 5550 ng/mL, the concentration in plasma (20 min, 4.0000000000 mg/kg, oral) was 83.7 ng/mL and the concentration in plasma (20 min, 8.0000000000 mg/kg, oral) was 138 ng/mL. For the same molecule, the concentration in plasma (20 min, 20.0000000000 mg/kg, oral) was 441 ng/mL, the concentration in plasma (0.5 h, 1.0000000000 mg/kg, iv) was 129 ng/mL and the concentration in plasma (0.5 h, 4.0000000000 mg/kg, iv) was 429 ng/mL. The concentration in plasma (0.5 h, 4.0000000000 mg/kg, oral) was 49.1 ng/mL, the concentration in plasma (0.5 h, 8.0000000000 mg/kg, iv) was 960 ng/mL and the concentration in plasma (0.5 h, 8.0000000000 mg/kg, oral) was 92 ng/mL. For the same molecule, the concentration in plasma (0.5 h, 20.0000000000 mg/kg, iv) was 2930 ng/mL, the concentration in plasma (0.5 h, 20.0000000000 mg/kg, oral) was 288 ng/mL and the concentration in plasma (40 min, 4.0000000000 mg/kg, oral) was 39.6 ng/mL. For the same molecule, the concentration in plasma (40 min, 8.0000000000 mg/kg, oral) was 70 ng/mL, the concentration in plasma (40 min, 20.0000000000 mg/kg, oral) was 255 ng/mL and the concentration in plasma (0.75 h, 1.0000000000 mg/kg, iv) was 72.6 ng/mL. For the same molecule, the concentration in plasma (0.75 h, 4.0000000000 mg/kg, iv) was 256 ng/mL, the concentration in plasma (0.75 h, 8.0000000000 mg/kg, iv) was 597 ng/mL and the concentration in plasma (0.75 h, 20.0000000000 mg/kg, iv) was 1860 ng/mL. The concentration in plasma (50 min, 4.0000000000 mg/kg, oral) was 30.2 ng/mL, the concentration in plasma (50 min, 8.0000000000 mg/kg, oral) was 57.9 ng/mL and the concentration in plasma (50 min, 20.0000000000 mg/kg, oral) was 197 ng/mL. The concentration in plasma (1 h, 1.0000000000 mg/kg, iv) was 47.1 ng/mL, the concentration in plasma (1 h, 4.0000000000 mg/kg, iv) was 176 ng/mL and the concentration in plasma (1 h, 4.0000000000 mg/kg, oral) was 23.5 ng/mL. The concentration in plasma (1 h, 8.0000000000 mg/kg, iv) was 379 ng/mL, the concentration in plasma (1 h, 8.0000000000 mg/kg, oral) was 40.6 ng/mL and the concentration in plasma (1 h, 20.0000000000 mg/kg, iv) was 1260 ng/mL. It also gave a concentration in plasma (1 h, 20.0000000000 mg/kg, oral) of 165 ng/mL, a concentration in plasma (1.25 h, 1.0000000000 mg/kg, iv) of 31.1 ng/mL and a concentration in plasma (1.25 h, 4.0000000000 mg/kg, iv) of 112 ng/mL. For the same molecule, the concentration in plasma (1.25 h, 8.0000000000 mg/kg, iv) was 246 ng/mL, the concentration in plasma (1.25 h, 20.0000000000 mg/kg, iv) was 813 ng/mL and the concentration in plasma (1.5 h, 4.0000000000 mg/kg, iv) was 75.7 ng/mL. For the same molecule, the concentration in plasma (1.5 h, 8.0000000000 mg/kg, iv) was 176 ng/mL, the concentration in plasma (1.5 h, 8.0000000000 mg/kg, oral) was 21.4 ng/mL and the concentration in plasma (1.5 h, 20.0000000000 mg/kg, iv) was 561 ng/mL. For the same molecule, the concentration in plasma (1.5 h, 20.0000000000 mg/kg, oral) was 82.7 ng/mL, the concentration in plasma (2 h, 4.0000000000 mg/kg, iv) was 38.3 ng/mL and the concentration in plasma (2 h, 8.0000000000 mg/kg, iv) was 87.4 ng/mL. The concentration in plasma (2 h, 20.0000000000 mg/kg, iv) was 308 ng/mL, the concentration in plasma (2 h, 20.0000000000 mg/kg, oral) was 46.8 ng/mL and the concentration in plasma (2.5 h, 8.0000000000 mg/kg, iv) was 44.2 ng/mL. The concentration in plasma (2.5 h, 20.0000000000 mg/kg, iv) was 184 ng/mL, the concentration in plasma (3 h, 8.0000000000 mg/kg, iv) was 23.3 ng/mL and the concentration in plasma (3 h, 20.0000000000 mg/kg, iv) was 101 ng/mL. It also gave a concentration in plasma (4 h, 20.0000000000 mg/kg, iv) of 39.1 ng/mL.
